Data as given in article PMC12718261, “New Fluorescent Synthetic Retinoids as Potential RAR Agonists with Anticancer, Molecular Docking and ADME Assessments” (Journal of Fluorescence, 2025).
Values joined by “and” are separate entries in the source; they are usually repeats but may differ in a detail not shown here. Equal entries are not always repeated.

Experiments:
Format in all cases: cell-based
[1] = system: WI-38 normal human fibroblast cells; assay: MTT cytotoxicity assay on normal fibroblasts; conditions: WI-38 normal fibroblast cells, 24 h, mean ± SEM
Method: (§1) The antiproliferation and cytotoxicity were assessed using 3-(4,5-dimethylthiazol-2-yl)−2,5-diphenyltetrazolium bromide (MTT, Serva) colorimetric assay. All tested cancer cell lines were seeded at a density of 20,000 cells per well in 96-well plates and allowed to adhere overnight. The attached cells were treated with five serial dilutions (100, 50, 5, 0.5, and 0.1 μM) in triplicate. These concentrations were prepared by diluting the stock solutions with serum-free culture media. The negative control cells were those treated with 0.1% DMSO solvent alone. The treated cells were handled in reduced light and maintained under standard culture growth conditions for 24 h. After the incubation period, MTT powder was prepared as a stock solution (5 mg/mL), and 20 μL of the MTT working reagent (final concentration 0.5 mg/mL) was added to each well. This was followed by incubation with MTT reagent for 4 h in a humidified atmosphere (37 °C, 5% CO2) with subsequent addition of 150 μL of DMSO solubilizing solvent and incubation for 20 min. The absorbance of solubilized violet formazan crystals was measured at 570 nm with a Biotek 800 TS microplate reader. IC50 was calculated as the concentration of retinoid that produced 50% cell growth inhibition. For cytotoxicity assessment, WI-38 normal human fibroblast cells were used for the calculation of SI, which is the ratio of IC50 retinoid (WI-38)/IC50 retinoid (cancer cell line).

Caco-2 = assay: MTT anti-proliferative assay; conditions: Homo sapiens; Caco-2, MTT, 24 h, mean ± SEM
Method: as §1

HCT-116 = assay: MTT anti-proliferative assay; conditions: Homo sapiens; HCT-116, MTT, 24 h, mean ± SEM
Method: as §1

HepG-2 = assay: MTT anti-proliferative assay; conditions: Homo sapiens, HepG2; HepG-2, MTT, 24 h, mean ± SEM
Method: as §1

MCF-7 = assay: MTT anti-proliferative assay; conditions: Homo sapiens, MCF7; MCF-7, MTT, 24 h, mean ± SEM
Method: as §1

MDA-MB231 = assay: MTT anti-proliferative assay; conditions: Homo sapiens, MDA-MB-231, 24 h, mean ± SEM
Method: as §1

PC-3 = assay: MTT anti-proliferative assay; conditions: Homo sapiens; PC-3, MTT, 24 h, mean ± SEM
Method: as §1

[2] = system: different cancer cell lines; assay: MTT anti-proliferative assay, whole panel statements; conditions: 24 h, read-out: IC50 across different cancer cell lines
Method: as §1, with “For cytotoxicity assessment, WI-38 normal human fibroblast cells were used for the calculation of SI, which is the ratio of IC50 retinoid (WI-38)/IC50 retinoid (cancer cell line).” left out

Caco-2 cancer cells [3] = assay: Apoptosis assay Annexin V/PI flow cytometry; conditions: Caco-2, IC50 dose, 24 h, AV/PI
Method: The standard protocol used in HSBR was performed. […] Cells were rinsed with 1 mL of binding buffer; the cells were again suspended in phosphate-buffered saline (PBS) (Lonza). 100 µL of cell suspension was incubated with 1 µL of FITC-labeled Annexin-V and 5 µL of PI for 15 min at 4 °C in the dark. The suspension was then mixed with 400 µL of ice-cold binding buffer, and each sample's apoptotic cells were analyzed using a Cytoflex flow cytometer (Beckman Coulter, USA), and CytExpert software (version 2.4.0.28) was employed for data analysis.

Caco-2 cancer cells [4] = assay: Cell cycle assay PI staining flow cytometry; conditions: Caco-2, IC50 dose, 24 h
Method: The standard protocol used in HSBR was performed. […] Cells were concentrated at 1500 xg and suspended in 50 μg/ml propidium iodide (PI) staining solution and 20 µg/ml RNaseA to identify cells with a sub-G1 DNA content. Cytoflex flow cytometer (Beckman Coulter, USA) was used, and CytExpert software (version 2.4.0.28) was employed for data analysis. The gating strategy used to eliminate doublets depends on plotting the population against a 2D contour plot in four quadrants, referred to as Q1(LL), Q2 (LR), Q3 (UL), and Q4 (UR), that illustrates the spread of the Annexin-FITC-H core cell population against PI PE-H.

[5] = system: CRABPI gene in Caco-2 cells; assay: Gene expression RT-qPCR; conditions: Caco-2, IC50 dose, 24 h, relative to 0.1% DMSO, normalized to GAPDH
Method: (§2) The gene expression analysis was performed using real-time quantitative PCR (RT-qPCR), as previously documented. After incubation, cells were harvested, and total RNA was extracted using the Favor-PrepTM Blood/Cultured Cell Total RNA Purification Mini kit (Favorgen Biotech Corp., Ping-Tung, Taiwan). The purified RNA was then reverse transcribed into the first-strand cDNA using the Revert Aid First-Strand cDNA Synthesis Kit (Thermo Scientific, Waltham, MA, USA). All qPCR reactions were carried out using the […] SYBR® Green qPCR Kit (Willowfort, Nottingham, UK). Differential gene expression was performed using the 2ˆ^−ΔΔCT method utilizing GAPDH as a reference gene.

[6] = system: Caspase-3 gene in Caco-2 cells; assay: Gene expression RT-qPCR; conditions: Caco-2, IC50 dose, 24 h, relative to 0.1% DMSO, normalized to GAPDH
Method: as §2

[7] = system: Cyt-C gene in Caco-2 cells; assay: Gene expression RT-qPCR; conditions: Caco-2, IC50 dose, 24 h, relative to 0.1% DMSO, normalized to GAPDH
Method: as §2

[8] = system: RAR-γ gene in Caco-2 cells; assay: Gene expression RT-qPCR; conditions: Caco-2, IC50 dose, 24 h, relative to 0.1% DMSO, normalized to GAPDH
Method: as §2

[9] = system: total ATPase in Caco-2 cells; assay: Total ATPase activity, malachite green colorimetric; conditions: Caco-2, IC50 dose, 24 h; 0.1% DMSO control normalized to 100%
Method: (§3) The total activity of ATPase and calcium-independent ATPase activity was quantified colorimetrically as described by our previous protocol. […] The inorganic phosphate (Pi) liberated after the hydrolysis of ATP by ATPase enzymes was complexed into a colored product in one step after the addition of a mixed reagent containing malachite green, ammonium molybdate, and polyvinyl alcohol (2:1:1). The intensity of absorbance at 630 nm was measured using the BioTek 800 TS absorbance plate reader (USA) and was directly proportional to the quantity of liberated Pi. In order to eliminate any color due to the non-enzymatic hydrolysis of ATP, control reactions were made using only ATP in the reaction buffer, and the absorbance intensity was then subtracted from the readings of the samples and standards.

[10] = system: calcium-independent ATPases in Caco-2 cells; assay: Calcium-independent ATPase activity, malachite green colorimetric; conditions: Caco-2, IC50 dose, 24 h; 0.1% DMSO control normalized to 100%
Method: as §3

[11] = system: CRABPII gene in Caco-2 cells; assay: Gene expression RT-qPCR; conditions: Caco-2, IC50 dose, 24 h, relative to 0.1% DMSO, normalized to GAPDH
Method: as §2

[12] = system: RAR-β gene in Caco-2 cells; assay: Gene expression RT-qPCR; conditions: Caco-2, IC50 dose, 24 h, relative to 0.1% DMSO, normalized to GAPDH
Method: The gene expression analysis was performed using real-time quantitative PCR (RT-qPCR), as previously documented [38]. After incubation, cells were harvested, and total RNA was extracted using the Favor-PrepTM Blood/Cultured Cell Total RNA Purification Mini kit (Favorgen Biotech Corp., Ping-Tung, Taiwan). The purified RNA was then reverse transcribed into the first-strand cDNA using the Revert Aid First-Strand cDNA Synthesis Kit (Thermo Scientific, Waltham, MA, USA). […] SYBR® Green qPCR Kit (Willowfort, Nottingham, UK). Differential gene expression was performed using the 2ˆ^−ΔΔCT method utilizing GAPDH as a reference gene [39].

IL-10 in Caco-2 cells = assay: Intracellular IL-10 ELISA; conditions: Caco-2, IC50 dose, 24 h, vs DMSO control
Method: For IL-10. Moreover, IL-6 measurements and cell pellets were lysed using RIPA buffer, and the total lysate was collected. The total protein was estimated to use commercially available ELISA kits as per the manufacturer’s instructions. ELISA plates were coated and used for analysis according to the previously used protocol using capture antibody (IL-6, Cat. No.: RAB0307 [57] and IL-10, Cat. No.: RAB1060 [58]), followed by blocking using 5% BSA in PBS-Tween buffer for 1 h. After incubating with samples for 2 h, a secondary […] antibody was added and kept for incubation for 2 h. Streptavidin-HRP reagent was then added to the plates, followed by the addition of TMB solution. Finally, the reaction was stopped using 2 N H2SO4, and the color was measured using the BioTek 800 TS absorbance plate reader (USA) at 450 nm wavelengths, and the protein was quantified.

[13] = system: RAR-α, RAR-β, RAR-γ proteins in Caco-2 cells; assay: Western blotting of RAR proteins; conditions: Caco-2, IC50 dose, 24 h, normalized to β-actin
Method: Using the previously outlined protocol, the western blot technique was used to determine the expression of RAR-α (Cat. No. E6Z6 K, cell signaling, USA), RAR-β (Cat. No. PP-H4338-00, R&D systems, USA) and RAR- γ (Cat. No. D3 A4, cell signaling, USA) in Caco-2 cells. […] Following incubation, floating adhered cells were separated and lysed. The Caco-2 cell lysate was immediately collected, subjected to sonication, and centrifuged for 15 min at 12,000 × g. The total soluble protein content was measured colorimetrically using the PierceTM 660 nm Assay (Thermo Scientific, Waltham, MA, USA) after the resultant supernatant was separated. The Gel documentation system (Geldoc-it, UVP, England) was applied for data analysis using Totallab analysis software (Ver.1.0.1) (ww.totallab.com).

| IC50 (Caco-2) [µM] | IC50 (HCT-116) [µM] | IC50 (MCF-7) [µM] | IC50 (MDA-MB231) [µM] | IC50 (PC-3) [µM] | SMILES | IC50 [1] [µM] | IC50 (HepG-2) [µM] | % Early apoptotic cells (LR) (Caco-2 cancer cells [3]) | % Late apoptotic cells (UL) (Caco-2 cancer cells [3]) [%] | % Necrotic cells (UR) (Caco-2 cancer cells [3]) | % Viable cells (LL) (Caco-2 cancer cells [3]) [%] | % G0-G1 (Caco-2 cancer cells [4]) [%] | % G2M (Caco-2 cancer cells [4]) [%] | % S (Caco-2 cancer cells [4]) [%] | % SubG0-G1 (Caco-2 cancer cells [4]) | CRABPI gene expression fold change [5] [fold] | caspase-3 gene expression fold change [6] | Cyt-C gene expression fold change [7] | total ATPase activity [9] [%] | ca+2-independent ATPase activity [10] [%] | further results |
| --- | --- | --- | --- | --- | --- | --- | --- | --- | --- | --- | --- | --- | --- | --- | --- | --- | --- | --- | --- | --- | --- |
| 14.4 ± 0.36 | 52.9 ± 4.3 | 12.2 ± 3.2 | 2.09 ± 0.1 | 4.6 ± 1.7 | COC(=O)c1ccc2cc(-c3ccc4c(c3)CCCO4)ccc2c1 [Compound 3b, Methyl 6-(chroman-6-yl)−2-naphthoate] | 29.2 ± 2.1 | 12 ± 2.6 | 60.06 ± 5.4 % | 0.49 | 37.78% and 37.78 ± 2.7 % | 1.68 ± 0.1 | 19.65 ± 2.7 | 1.74 ± 0.1 | 3.31 ± 1.1 | 75.62% and 75.62 ± 7.4 % | 9.9 ± 0.4 | did not show any significant increase | did not show any overexpression | 41 | 36.2 | IC50 [2]: ≤ 50 µM; RAR-γ gene expression fold change [8]: 2.4 ± 0.1 fold |
| 9.58 ± 1.1 | 10.2 ± 3.8 | 13.8 ± 2.4 | 2.33 ± 0.6 | 18.9 ± 4 | COC(=O)c1ccc2cc(-c3ccc4c(c3)CCCN4)ccc2c1 [Compound 3a, Methyl 6-(1,2,3,4-tetrahydroquinolin-6-yl)−2-naphthoate] | 39.2 ± 4.7 | 6.37 ± 1 | 47.37 ± 3.9 % | 0.30 | 51.38 ± 3.6 % | 0.95 | 23.90 ± 8.4 | 2.41 ± 0.3 | 4.13 ± 1.2 | 70.02% and 70.02 ± 4.7 % | 2.4 ± 0.1 | 8.5 ± 0.4 fold | did not show any overexpression | 43.9 | 40.0 | RAR-γ gene expression fold change [8]: 4.5 ± 0.2 fold; intracellular IL-10 level change (IL-10 in Caco-2 cells): additional significant reduction |
| 47.3 ± 6.2 | 133 ± 6.8 | 64.8 ± 5.4 | 2.42 ± 1.3 | 2.78 ± 0.3 | O=C(O)c1ccc2cc(-c3ccc4c(c3)CCCN4)ccc2c1 [Compound 4a, 6-(1,2,3,4-tetrahydroquinolin-6-yl)−2-naphthoic acid] | 43.7 ± 4.2 | 53 ± 4.9 | 23.44% and 23.44 ± 2.3 % | 0.37 | 75.13% and 75.13 ± 6.8 % | 1.06 ± 0.1 | 18.77 ± 4.8 | 2.26 ± 0.4 | 3.53 ± 1.3 | 75.83% and 75.83 ± 6.4 % |  | did not show any significant increase | did not show any overexpression | 23.7 | 13.9 | RAR protein expression (western blot) [13]: overexpression of all RARs; intracellular IL-10 level change (IL-10 in Caco-2 cells): did not show any significant reduction |

| SMILES | IC50 (Caco-2) [µM] | IC50 (HCT-116) [µM] | IC50 (MCF-7) [µM] | IC50 (MDA-MB231) [µM] | IC50 (PC-3) [µM] | IC50 [1] [µM] | IC50 (HepG-2) [µM] | % Early apoptotic cells (LR) (Caco-2 cancer cells [3]) | % Late apoptotic cells (UL) (Caco-2 cancer cells [3]) [%] | % Necrotic cells (UR) (Caco-2 cancer cells [3]) | % Viable cells (LL) (Caco-2 cancer cells [3]) [%] | % G0-G1 (Caco-2 cancer cells [4]) [%] | % G2M (Caco-2 cancer cells [4]) [%] | % S (Caco-2 cancer cells [4]) [%] | % SubG0-G1 (Caco-2 cancer cells [4]) | CRABPI gene expression fold change [5] [fold] | caspase-3 gene expression fold change [6] | Cyt-C gene expression fold change [7] | total ATPase activity [9] [%] | ca+2-independent ATPase activity [10] [%] | further results |
| --- | --- | --- | --- | --- | --- | --- | --- | --- | --- | --- | --- | --- | --- | --- | --- | --- | --- | --- | --- | --- | --- |
| CC1=C(/C=C/C(C)=C/C=C/C(C)=C/C(=O)O)C(C)(C)CCC1 [ATRA, all-trans-retinoic acid, reference compound] | 11.4 ± 0.3 | 38.8 ± 0.9 | 4.93 ± 0.4 | 10.4 ± 0.2 | 2.21 ± 0.1 | 46.9 ± 2.8 | 16 ± 1.3 | 1.20 ± 0.1% | 0.03 | 98.74% and 98.74 ± 8.7 % | 0.02 | 17.37 ± 6.1 | 3.05 ± 0.7 | 5.39 ± 1.4 | 74.63 ± 5.8 % | 1.2 | 1.6 ± 0.1 fold | 7.7 ± 0.3 fold | 42.2 | 39.4 | CRABPII gene expression fold change [11]: no effect; RAR-γ gene expression fold change [8]: 4.1 ± 0.2 fold; RAR-β gene expression fold change [12]: 35.3 ± 1.6 fold |
